Experimental findings from PubChem BioAssay AID328 (DTP/NCI, 2004) are described below.

Where “and” joins values, the source holds several entries; their conditions need not be identical. Identical values can stand only once. Inconclusive results and toxic doses are left out.

The experiment has as its system BDF1 mice, P388 leukemia ip, median survival T/C. Description: NCI In Vivo Anticancer Drug Screen. Data for tumor model P388 Leukemia (intraperitoneal) in B6D2F1 (BDF1) mice. The conditions noted are these: endpoint: median survival time, higher = longer survival. The method, boiled down: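 Transplantable tumour in mice; compound vs vehicle dosing; survival scored; ratio of treated to control reported.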

Where [1] appears, read: dose: 200.0 mg/kg/injection, schedule: Q04DX003 (ip), vehicle: saline with Tween-80.
The mark [2] stands for this setting: dose: 100.0 mg/kg/injection, schedule: Q04DX003 (ip), vehicle: Klucel (hydroxypropylcellulose) (HPC).
Where [3] appears, read: dose: 200.0 mg/kg/injection, schedule: Q04DX003 (ip), vehicle: Klucel (hydroxypropylcellulose) (HPC).
The mark [4] stands for this setting: dose: 400.0 mg/kg/injection, schedule: Q04DX003 (ip), vehicle: Klucel (hydroxypropylcellulose) (HPC).
The mark [5] stands for this setting: dose: 25.0 mg/kg/injection, schedule: Q01DX009 (ip), vehicle: Klucel (hydroxypropylcellulose) (HPC).
The mark [6] stands for this setting: dose: 50.0 mg/kg/injection, schedule: Q01DX009 (ip), vehicle: Klucel (hydroxypropylcellulose) (HPC).
[7] abbreviates: dose: 100.0 mg/kg/injection, schedule: Q04DX003 (ip), vehicle: saline with Tween-80.
[8] abbreviates: dose: 400.0 mg/kg/injection, schedule: Q04DX003 (ip), vehicle: saline with Tween-80.
Setting [9] is: dose: 50.0 mg/kg/injection, schedule: Q01DX009 (ip), vehicle: saline with Tween-80.
Where [10] appears, read: dose: 100.0 mg/kg/injection, schedule: Q01DX009 (ip), vehicle: saline with Tween-80.
Setting [11] is: dose: 200.0 mg/kg/injection, schedule: Q01DX009 (ip), vehicle: saline with Tween-80.
Setting [12] is: dose: 100.0 mg/kg/injection, schedule: Q01DX009 (ip), vehicle: Klucel (hydroxypropylcellulose) (HPC).

With `COCCCNS(=O)(=O)c1ncnc2nc[nH]c12`, the T/C was 100 % of control (dose: 132.0 mg/kg/injection, schedule: Q04DX003 (ip), vehicle: saline with Tween-80); 100 % of control under setting [1]; 100 % of control (dose: 300.0 mg/kg/injection, schedule: Q04DX003 (ip), vehicle: saline with Tween-80).
`CCOC(=O)c1ccc(=O)n(C(C)C)c1`: the T/C under setting [2] was 90 % of control, the T/C under setting [3] is 90 % of control and the T/C under setting [4] was 100 % of control.
Turning to `COc1ccc(C(SCC(N)C(=O)O)(c2ccccc2)c2ccccc2)cc1` (centres undefined), the T/C was 117 % of control (dose: 1.3 mg/kg/injection, schedule: Q01DX009 (ip), vehicle: Klucel (hydroxypropylcellulose) (HPC)); 113 % of control (dose: 2.0 mg/kg/injection, schedule: Q01DX009 (ip), vehicle: Klucel (hydroxypropylcellulose) (HPC)); 155 % of control (dose: 4.12 mg/kg/injection, schedule: Q01DX009 (ip), vehicle: Klucel (hydroxypropylcellulose) (HPC)); 160 % of control and 168 % of control and 175 % of control (dose: 6.25 mg/kg/injection, schedule: Q01DX009 (ip), vehicle: Klucel (hydroxypropylcellulose) (HPC)); 200 % of control (dose: 12.5 mg/kg/injection, schedule: Q01DX009 (ip), vehicle: Klucel (hydroxypropylcellulose) (HPC)); 250 % of control under setting [5]. Also, the T/C is, setting by setting: (dose: 25.0 mg/kg/injection, schedule: Q04DX003 (ip), vehicle: Klucel (hydroxypropylcellulose) (HPC)) 155 % of control; (dose: 33.0 mg/kg/injection, schedule: Q04DX003 (ip), vehicle: Klucel (hydroxypropylcellulose) (HPC)) 154 % of control; under setting [6], 105 % of control; (dose: 50.0 mg/kg/injection, schedule: Q04DX003 (ip), vehicle: Klucel (hydroxypropylcellulose) (HPC)) 170 % of control and 185 % of control; (dose: 66.0 mg/kg/injection, schedule: Q04DX003 (ip), vehicle: Klucel (hydroxypropylcellulose) (HPC)) 272 % of control; under setting [2], 240 % of control and 205 % of control.
Turning to `Cc1cc(Cl)c2ccccc2c1N`, the T/C (dose: 44.0 mg/kg/injection, schedule: Q01DX009 (ip), vehicle: other) is 100 % of control; the T/C (dose: 66.0 mg/kg/injection, schedule: Q01DX009 (ip), vehicle: other) was 110 % of control; the T/C (dose: 100.0 mg/kg/injection, schedule: Q01DX009 (ip), vehicle: other) is 115 % of control; the T/C (dose: 150.0 mg/kg/injection, schedule: Q01DX009 (ip), vehicle: other) was 110 % of control.
Consider `Cc1cc(N(C)C)cc(C)c1/C=C\c1ccnc2ccccc12`, for which the T/C was 112 % of control (dose: 100.0 mg/kg/injection, schedule: Q04DX002 (ip), vehicle: saline with Tween-80); 107 % of control (dose: 200.0 mg/kg/injection, schedule: Q04DX002 (ip), vehicle: saline with Tween-80); 117 % of control (dose: 400.0 mg/kg/injection, schedule: Q04DX002 (ip), vehicle: saline with Tween-80).
Turning to `CC1c2ccccc2N(S(=O)(=O)c2ccccc2)C1C` (centres undefined), the T/C reads like this: (dose: 100.0 mg/kg/injection, schedule: Q01DX009 (ip), vehicle: gum acacia) 107 % of control; (dose: 200.0 mg/kg/injection, schedule: Q01DX009 (ip), vehicle: gum acacia) 92 % of control; (dose: 400.0 mg/kg/injection, schedule: Q01DX009 (ip), vehicle: gum acacia) 100 % of control.
On to `C=C1CC2(CC(C)(C)CC(C)(C)C2)OC1=O`, for which the T/C runs as follows: under setting [7], 97 % of control; under setting [1], 112 % of control; under setting [8], 106 % of control.
As to `COc1cc(Br)c(CCC#N)cc1OC`, the T/C under setting [9] is 91 % of control, the T/C under setting [10] was 110 % of control and the T/C under setting [11] is 92 % of control.
Take `CCC(C)Sc1nc(N)nc2c1ncn2C1OC(CO)C(O)C1O` (centres undefined): the T/C under setting [7] is 91 % of control and 109 % of control; the T/C under setting [1] was 108 % of control and 118 % of control.
For `CCOC(=O)C(=CN1CCCCC1)C(=O)OCC`, the T/C by setting is: under setting [7], 95 % of control; under setting [1], 100 % of control; under setting [8], 100 % of control.
Take `CC(=O)[C@H]1CC[C@H]2[C@@H]3C[C@H](F)C4=CC(=O)CC[C@]4(C)[C@H]3C(=O)C[C@]12C`: the T/C was 112 % of control under setting [9]; 104 % of control under setting [10]; 116 % of control under setting [11]; 100 % of control under setting [1]; 111 % of control under setting [8].
In the case of `COC(=O)/C=C/CBr`, the T/C is 110 % of control (dose: 2.5 mg/kg/injection, schedule: Q01DX010 (ip), vehicle: saline); 110 % of control (dose: 5.0 mg/kg/injection, schedule: Q01DX010 (ip), vehicle: saline); 110 % of control (dose: 10.0 mg/kg/injection, schedule: Q01DX010 (ip), vehicle: saline); 115 % of control (dose: 20.0 mg/kg/injection, schedule: Q01DX010 (ip), vehicle: saline).
With `COc1ccc(NCCN(C)C)c2c(=O)c3ccccc3sc12`, the T/C under setting [9] is 97 % of control, the T/C under setting [10] was 101 % of control and the T/C under setting [11] was 108 % of control.
`CCCCOC(=O)C1(N)CCCC1`: the T/C by setting is: (dose: 50.0 mg/kg/injection, schedule: Q01DX009 (ip), vehicle: saline) 104 % of control; (dose: 150.0 mg/kg/injection, schedule: Q01DX009 (ip), vehicle: saline with Tween-80) 120 % of control; (dose: 200.0 mg/kg/injection, schedule: Q01DX009 (ip), vehicle: saline) 109 % of control.
On to `Cn1c(=O)c2c(nc(CCCCc3nc4c(c(=O)n(C)c(=O)n4C)n3C)n2C)n(C)c1=O`, for which the T/C by setting is: under setting [10], 91 % of control; under setting [11], 88 % of control.
Turning to `CS(=O)(=O)OCCCCCOS(C)(=O)=O`, the T/C (dose: 12.5 mg/kg/injection, schedule: Q01DX009 (ip), vehicle: saline) was 95 % of control; the T/C (dose: 25.0 mg/kg/injection, schedule: Q01DX009 (ip), vehicle: saline) is 100 % of control; the T/C (dose: 50.0 mg/kg/injection, schedule: Q04DX003 (ip), vehicle: saline) was 113 % of control.
Turning to `O=C(C[n+]1cc2ccccc2c2ccccc21)c1ccccc1`, the T/C under setting [5] was 104 % of control; the T/C (dose: 35.0 mg/kg/injection, schedule: Q01DX009 (ip), vehicle: Klucel (hydroxypropylcellulose) (HPC)) was 100 % of control and 108 % of control; the T/C under setting [6] is 100 % of control and 120 % of control; the T/C (dose: 75.0 mg/kg/injection, schedule: Q01DX009 (ip), vehicle: Klucel (hydroxypropylcellulose) (HPC)) is 115 % of control; the T/C under setting [12] is 114 % of control.
Take `O=CNNc1ccc([N+](=O)[O-])cc1`: the T/C under setting [12] is 90 % of control; the T/C under setting [2] is 105 % of control; the T/C (dose: 200.0 mg/kg/injection, schedule: Q01DX009 (ip), vehicle: Klucel (hydroxypropylcellulose) (HPC)) is 100 % of control; the T/C under setting [3] is 100 % of control; the T/C (dose: 400.0 mg/kg/injection, schedule: Q01DX009 (ip), vehicle: Klucel (hydroxypropylcellulose) (HPC)) was 104 % of control; the T/C under setting [4] is 105 % of control.
Take `CN(C)CCN1C(=O)c2cccc3cc([N+](=O)[O-])cc(c23)C1=O`: the T/C reads like this: (dose: 3.13 mg/kg/injection, schedule: Q01DX009 (ip), vehicle: saline with Tween-80) 160 % of control; (dose: 6.25 mg/kg/injection, schedule: Q01DX009 (ip), vehicle: saline with Tween-80) 215 % of control.
Turning to `c1ccc([P+](C[P+](c2ccccc2)(c2ccccc2)c2ccccc2)(c2ccccc2)c2ccccc2)cc1`, the T/C by setting is: (dose: 0.39 mg/kg/injection, schedule: Q01DX009 (ip), vehicle: Klucel (hydroxypropylcellulose) (HPC)) 109 % of control; (dose: 0.78 mg/kg/injection, schedule: Q01DX009 (ip), vehicle: Klucel (hydroxypropylcellulose) (HPC)) 109 % of control; (dose: 1.56 mg/kg/injection, schedule: Q01DX009 (ip), vehicle: Klucel (hydroxypropylcellulose) (HPC)) 118 % of control; (dose: 1.72 mg/kg/injection, schedule: Q04DX003 (ip), vehicle: Klucel (hydroxypropylcellulose) (HPC)) 109 % of control; (dose: 2.3 mg/kg/injection, schedule: Q01DX009 (ip), vehicle: Klucel (hydroxypropylcellulose) (HPC)) 115 % of control; (dose: 3.45 mg/kg/injection, schedule: Q04DX003 (ip), vehicle: Klucel (hydroxypropylcellulose) (HPC)) 122 % of control. Moreover, the T/C (dose: 6.9 mg/kg/injection, schedule: Q04DX003 (ip), vehicle: Klucel (hydroxypropylcellulose) (HPC)) is 90 % of control.
